Holding throughout (assay): two-electrode voltage clamp, Xenopus oocytes
Format in all cases: cell-based
What all share (settings): read-out: EC50 or IC50

Experiment [1] has as its target T1, GluN1/2B NMDA receptor (GluN1a + GluN2B) (Rattus norvegicus, UniProt P35439+Q00960).
T1 construct: gene Grin1; cRNAs 1:1-3 in Xenopus oocytes; heterotetramer

Experiment [2] concerns the target T2, GluN1/2B NMDA receptor (GluN1a + GluN2B) (Rattus norvegicus, UniProt P35439+Q00960, P35439:Y535A).
T2 construct: gene Grin1; cRNAs 1:1-3 in Xenopus oocytes; heterotetramer
The text has this: (§1) two-electrode voltage clamp, Xenopus oocytes on GluN1/2B NMDA receptor (GluN1a + GluN2B)

For experiment [3], the target named is T3, GluN1/2B NMDA receptor (GluN1a + GluN2B) (Rattus norvegicus, UniProt P35439+Q00960, P35439:E781A).
T3 construct: gene Grin1; cRNAs 1:1-3 in Xenopus oocytes; heterotetramer
Text: as §1

We go through two molecules from publication PMC5423295, “Positive Modulatory Interactions of NMDA Receptor GluN1/2B Ligand Binding Domains Attenuate Antagonists Activity” (Frontiers in Pharmacology, 2017).

What is called IC50 is the point on the concentration scale where inhibition reaches its midpoint.

T1 sequence (Q00960 27-1482, other chains not shown): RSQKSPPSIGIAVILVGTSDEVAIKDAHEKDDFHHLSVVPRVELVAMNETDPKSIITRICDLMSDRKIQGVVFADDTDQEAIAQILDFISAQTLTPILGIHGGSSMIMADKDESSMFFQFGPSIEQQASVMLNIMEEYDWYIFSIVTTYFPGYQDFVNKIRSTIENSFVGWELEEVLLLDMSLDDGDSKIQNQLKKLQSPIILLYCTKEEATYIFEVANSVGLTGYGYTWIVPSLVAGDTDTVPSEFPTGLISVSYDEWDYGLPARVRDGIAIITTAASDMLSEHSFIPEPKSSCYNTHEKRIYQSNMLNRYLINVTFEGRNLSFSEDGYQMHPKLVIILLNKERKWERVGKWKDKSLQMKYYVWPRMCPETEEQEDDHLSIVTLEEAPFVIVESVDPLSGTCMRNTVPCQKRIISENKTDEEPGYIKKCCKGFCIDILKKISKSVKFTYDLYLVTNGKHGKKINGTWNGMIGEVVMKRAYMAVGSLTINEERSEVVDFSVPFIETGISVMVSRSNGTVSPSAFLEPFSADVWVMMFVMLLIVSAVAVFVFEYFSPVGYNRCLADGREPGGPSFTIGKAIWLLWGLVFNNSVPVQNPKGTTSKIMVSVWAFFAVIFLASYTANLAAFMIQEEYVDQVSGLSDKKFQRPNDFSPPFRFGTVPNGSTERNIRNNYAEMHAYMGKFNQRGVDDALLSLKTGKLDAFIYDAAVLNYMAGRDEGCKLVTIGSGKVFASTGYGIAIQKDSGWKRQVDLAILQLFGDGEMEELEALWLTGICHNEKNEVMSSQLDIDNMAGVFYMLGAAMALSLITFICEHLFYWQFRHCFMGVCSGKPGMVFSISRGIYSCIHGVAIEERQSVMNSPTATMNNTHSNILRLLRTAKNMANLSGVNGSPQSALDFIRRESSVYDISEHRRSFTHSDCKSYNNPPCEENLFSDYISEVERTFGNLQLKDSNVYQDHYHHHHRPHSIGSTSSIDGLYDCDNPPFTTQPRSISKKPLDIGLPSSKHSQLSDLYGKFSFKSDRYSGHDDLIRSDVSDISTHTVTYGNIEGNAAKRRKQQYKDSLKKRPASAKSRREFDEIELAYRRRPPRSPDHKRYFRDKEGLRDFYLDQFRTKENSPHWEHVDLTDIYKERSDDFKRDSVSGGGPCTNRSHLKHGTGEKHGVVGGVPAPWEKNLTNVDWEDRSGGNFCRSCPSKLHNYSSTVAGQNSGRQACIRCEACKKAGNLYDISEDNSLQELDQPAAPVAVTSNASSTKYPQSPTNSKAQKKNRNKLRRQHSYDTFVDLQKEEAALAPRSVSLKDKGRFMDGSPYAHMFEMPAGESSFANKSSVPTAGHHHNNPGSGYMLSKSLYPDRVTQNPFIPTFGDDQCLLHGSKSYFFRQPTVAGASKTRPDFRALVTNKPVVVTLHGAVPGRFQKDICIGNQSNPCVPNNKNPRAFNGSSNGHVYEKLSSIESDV
T2 sequence (Q00960 27-1482, other chains not shown): as above
T3 sequence (Q00960 27-1482, other chains not shown): as above

Consider `NC(CCCP(=O)(O)O)C(=O)O` (racemic) [DL-AP5], for which the IC50 in experiment [1] came out at 35.7 ± 1.3 µM.

For `O=C(O)c1cc(O)c2c(Cl)cc(Cl)cc2n1` [5,7-DCKA], the IC50 in experiment [1] amounted to 4.63 ± 0.33 µM; in experiment [2] it was 0.16 ± 0.02 µM; in experiment [3], 0.61 ± 0.09 µM.
